Results on two compounds are retold here after US20090298875A1, “A Combination of Compounds, Which Can be Used in the Treatment of Respiratory Diseases, Especially Chronic Obstructive Pulmonary Disease (COPD) and Asthma” (ASTRAZENECA AB, priority 2005, published 2009).

This data set is described as follows: Estimated solubility of the salt in organic solvents. In kind it is physicochemical. On the procedure: (b) The Form B salt described in (a) above was also prepared by dissolving, in a vial, 20% w of a sample of the benzoate salt prepared by the method of Example 1(b) (Form A) in a solvent such as methanol (>20 mg/ml), ethanol (>20 mg/ml), n-propanol (>20 mg/ml), isopropanol (8.5 mg/ml) or acetone (9.6 mg/ml). The figures in brackets indicate the estimated solubility of the salt in these solvents. The vial was then sealed and the suspension was homogenised at ambient temperature (20° C.) using a magnet. Stirring and temperature were maintained for a period of at least 7 days after which time a sample of the material obtained was dried and tested by XRPD. XRPD confirmed that there had been complete transformation of Form A to Form B.
(a) Form B was prepared by dissolving, in a vial, 20% w of a sample of the furoate salt prepared by the method of Example 1(b) (Form A) in a solvent such as ethanol (16 mg/ml) or 2-butanol (8 mg/ml). The figures in brackets indicate the estimated solubility of the salt in these solvents. The vial was then sealed and the suspension was homogenised at ambient temperature (20° C.) using a magnet. Stirring and temperature were maintained for a period of at least 7 days after which time a sample of the material obtained was dried and tested by XRPD. XRPD confirmed that there had been complete transformation of Form A to Form B.

Where only a bound is given, the exact number is not on record here.

Consider `CC(=O)Nc1ccc(O)cc1OC[C@@](C)(O)CNC1CCN(Cc2ccc(Cl)cc2)CC1.O=C(O)c1ccco1` [1(c), N-{2-[((2S)-3-{[1-(4-chlorobenzyl)piperidin-4-yl]amino}-2-hydroxy-2-methylpropyl)oxy]-4-hydroxyphenyl}acetamide furoate (1:1 Salt), Form A], for which the “estimated solubility of the salt” value was 8 mg/mL (2-butanol) and 16 mg/mL (ethanol).

For `CC(=O)Nc1ccc(O)cc1OC[C@@](C)(O)CNC1CCN(Cc2ccc(Cl)cc2)CC1.O=C(O)c1ccccc1` [Example 1(b), N-{2-[((2S)-3-{[1-(4chlorobenzyl)piperidin-4-yl]amino}-2-hydroxy-2-methylpropyl)oxy]-4-hydroxyphenyl}acetamide benzoate (1:1 Salt), Form A], the “estimated solubility of the salt” value (acetone) is 9.6 mg/mL; the “estimated solubility of the salt” value (ethanol) is over 20 mg/mL; the “estimated solubility of the salt” value (isopropanol) is 8.5 mg/mL; the “estimated solubility of the salt” value (methanol) was over 20 mg/mL; the “estimated solubility of the salt” value (n-propanol) is over 20 mg/mL.
